In article PMC9124600 (Medical Oncology (Northwood, London, England), 2022) one finds EC50 data, which are given here for 2 compounds.

The EC50 is the midpoint of the concentration-response curve. A low value points to greater potency.

The assay addresses T1, MASTL kinase (Microtubule-associated serine/threonine kinase-like; Great wall kinase) (Homo sapiens, UniProt Q96GX5).
T1 sequence (Q96GX5 1-879): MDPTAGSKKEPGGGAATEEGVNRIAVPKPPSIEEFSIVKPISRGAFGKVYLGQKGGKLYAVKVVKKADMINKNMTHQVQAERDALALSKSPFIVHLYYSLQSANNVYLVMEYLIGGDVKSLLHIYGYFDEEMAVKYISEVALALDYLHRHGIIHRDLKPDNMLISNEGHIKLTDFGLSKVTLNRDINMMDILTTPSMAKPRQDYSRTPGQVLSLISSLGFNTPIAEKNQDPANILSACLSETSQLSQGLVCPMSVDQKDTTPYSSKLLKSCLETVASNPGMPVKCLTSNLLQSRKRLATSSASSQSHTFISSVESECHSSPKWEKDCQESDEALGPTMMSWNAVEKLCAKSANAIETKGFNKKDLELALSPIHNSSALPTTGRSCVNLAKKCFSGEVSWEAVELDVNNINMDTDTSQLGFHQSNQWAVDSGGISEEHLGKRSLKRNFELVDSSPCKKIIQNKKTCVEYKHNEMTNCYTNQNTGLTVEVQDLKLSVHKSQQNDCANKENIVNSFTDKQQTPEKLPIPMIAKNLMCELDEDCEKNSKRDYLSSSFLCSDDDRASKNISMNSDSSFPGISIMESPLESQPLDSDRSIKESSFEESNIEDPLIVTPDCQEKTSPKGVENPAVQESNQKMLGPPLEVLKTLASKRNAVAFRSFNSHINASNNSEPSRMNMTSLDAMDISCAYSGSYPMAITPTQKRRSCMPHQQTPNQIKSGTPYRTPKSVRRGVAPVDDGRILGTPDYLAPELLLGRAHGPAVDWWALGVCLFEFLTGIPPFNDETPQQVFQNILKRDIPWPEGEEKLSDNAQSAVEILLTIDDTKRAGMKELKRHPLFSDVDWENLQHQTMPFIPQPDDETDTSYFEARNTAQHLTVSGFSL
Kind of assay: ADP-Glo luminescent in vitro kinase assay. The assay is classed as biochemical.

Regarding `CC(=O)c1c(C)c2cnc(Nc3ccc(N4CCNCC4)cn3)nc2n(C2CCCC2)c1=O` [Palbociclib], the concentration giving a half-maximal response (EC50) was found to be 10.5 µM.
`Cn1cc(C2=C(c3cn(C4CCN(Cc5ccccn5)CC4)c4ccccc34)C(=O)NC2=O)c2ccccc21` [Enzastaurin]: the EC50 was found to be 17.1 µM.
